The values that follow are results of earlier work, collected in patent publication US20200317616A1, “Crystalline Form of Betrixaban Maleate” (Apotex Inc., priority 2019, published 2020).

The conditions of data set [1]: anhydrous form, CDER review NDA 208383.
The conditions of data set [2]: anhydrous form, CDER review NDA 208383. This is another data set of the same source.
The conditions of data set [3]: labelling of BEVYXXA.

Counter-ions that a name gives are not always drawn.

`COc1ccc(NC(=O)c2ccc(C(=N)N(C)C)cc2)c(C(=O)Nc2ccc(Cl)cn2)c1` [Betrixaban maleate]: the solubility result in data set [1] is on record as “high”. In addition, in data set [2], the permeability result is “low”. On to `COc1ccc(NC(=O)c2ccc(C(=N)N(C)C)cc2)c(C(=O)Nc2ccc(Cl)cn2)c1` [Betrixaban, N-(5-chloropyridin-2-yl)-2-[4-(N,N-dimethylcarbamimidoyl)-benzoylamino]-5-methoxybenzamide], for which the oral bioavailability in data set [3] is 34%.
